According to US20090023762A1, “Substituted 2-Aminopyrimidine-4-Ones, Their Pharmaceutical Compositions And Their Use In The Treatment And/Or Prevention Of Ab-Related Pathologies” (ASTRAZENECA AB, priority 2005, published 2009):

Target: T1, human β-Secretase (Homo sapiens, UniProt P56817)
T1 construct: The soluble part of the human β-Secretase (AA 1-AA 460) was cloned; Fc domain of IgG1 (C); made in house
Assay: TR-FRET assay
Assay type: biochemical
Conditions: substrate (Europium)CEVNLDAEFK(Qsy7) 100 nM, enzyme 0.3 nM, pH 4.5
Protocol: The enzyme used in the IGEN Cleavage-, Fluorescent-, TR-FRET- and the BiaCore assay is described as follows:
The soluble part of the human β-Secretase (AA 1-AA 460) was cloned into the ASP2-Fc10-1-IRES-GFP-neoK mammalian expression vector. The gene was fused to the Fc domain of IgG1 (affinity tag) and stably cloned into HEK 293 cells. Purified sBACE-Fc is stored in Tris buffer, pH 9.2 and has a purity of 95%.
Dilute the enzyme (truncated form) to 6 μg/mL (stock 1.3 mg/mL) and the substrate (Europium)CEVNLDAEFK (Qsy7) to 200 nM (stock 60 μM) in reaction buffer (NaAcetate, chaps, triton x-100, EDTA pH4.5). The Biomek FX is used for all liquid handling and the enzyme and substrate solutions are kept on ice until they are placed in Biomek FX. Enzyme (9 μl) is added to the plate then […] in dimethylsulphoxide is added, mixed and pre-incubated for 10 minutes. Substrate (10 μl) is then added, mixed and the reaction proceeds in the dark for 15 minutes at room temperature. The reaction is stopped with the addition of Stop solution (7 μl, NaAcetate pH 9). The fluorescence of the product is measured on a Victor II plate reader with an excitation wavelength of 340 nm and an emission wavelength of 615 nm. The assay is done in a Costar 384 well round bottom, low volume, non-binding surface (Corning #3676). […]

T1 sequence (P56817 22-460): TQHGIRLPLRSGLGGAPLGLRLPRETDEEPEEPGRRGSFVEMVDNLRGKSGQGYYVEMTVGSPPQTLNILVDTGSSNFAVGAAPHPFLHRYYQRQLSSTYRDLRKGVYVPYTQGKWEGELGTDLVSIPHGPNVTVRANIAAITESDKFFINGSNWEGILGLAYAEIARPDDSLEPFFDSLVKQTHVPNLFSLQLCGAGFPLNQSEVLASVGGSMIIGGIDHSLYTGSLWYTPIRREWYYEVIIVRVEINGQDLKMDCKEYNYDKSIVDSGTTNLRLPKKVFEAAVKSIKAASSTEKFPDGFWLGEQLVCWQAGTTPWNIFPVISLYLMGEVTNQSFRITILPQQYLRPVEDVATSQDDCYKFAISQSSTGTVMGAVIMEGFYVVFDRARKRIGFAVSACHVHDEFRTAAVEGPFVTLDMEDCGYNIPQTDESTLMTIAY

COc1cc(OS(C)(=O)=O)cc(-c2cccc(C3(C)CC(=O)N(C)C(N)=N3)c2)c1 (stereo not shown) [Example 9, 3′-(2-Amino-1,4-dimethyl-6-oxo-1,4,5,6-tetrahydropyrimidin-4-yl)-5-methoxybiphenyl-3-yl methanesulfonate]
IC50: 703 nM
